For series [1] the following is noted: 298.15 K; 101.33 kPa; Liquid; Vibrating tube method.
Series [2] can be described thus: refractive index (Na D-line) (dimensionless). The settings on record: 298.15 K; 101.33 kPa; Liquid; Standard Abbe refractometry.

Broadly, the mass density is mass per unit of volume. By refractive index is commonly meant the speed of light in vacuum divided by its phase velocity in the sample.

Molecules are shown by their SMILES. ± gives the expanded uncertainty stated by the source.

Consider `CCCCCCCCC` [nonane], for which, in series [1], the mass density was found to be 713.9 ± 0.17 kg/m3. Further, the refractive index in series [2] was 1.40326 ± 0.00031.

Turning to `Cc1ccccc1` [toluene], the mass density in series [1] came to 862.17 ± 0.13 kg/m3. Also, the refractive index in series [2] is on record as 1.49399 ± 0.00031.

As for `CCCC[n+]1ccn(C)c1.O=S(=O)([N-]S(=O)(=O)C(F)(F)F)C(F)(F)F`, the mass density in series [1] was 1436.35 ± 0.22 kg/m3. In addition, in series [2], the refractive index was 1.42706 ± 0.00031.

Consider `CCc1ccccc1` [ethylbenzene], for which, in series [1], the mass density came out at 862.51 ± 0.24 kg/m3. Also, the refractive index in series [2] is recorded as 1.49304 ± 0.00037.

On to `CCCCCCCC` [octane], for which, in series [1], the mass density was determined as 698.6 ± 0.25 kg/m3. In addition, in series [2], the refractive index was 1.39519 ± 0.00037.

As to `c1ccccc1` [benzene], in series [1], the mass density stood at 873.57 ± 0.24 kg/m3. Also, the refractive index in series [2] stood at 1.49774 ± 0.00037.

For the molecule `CCCn1cc[n+](C)c1.O=S(=O)([N-]S(=O)(=O)C(F)(F)F)C(F)(F)F`, the mass density in series [1] was determined as 1474.44 ± 0.33 kg/m3. Moreover, the refractive index in series [2] turned out to be 1.42526 ± 0.00033.

Source of the values: the NIST ThermoML archive (doi:10.1016/j.jct.2014.01.022).
